In US20240174596A1 (Northwestern University, priority 2021, published 2024):
Structures can show the parent of a compound that is named as a salt. Where two headings read alike, the source gives them in different places. Marks after values point to notes of the source that are not given here. Values belong to the compound of their own block, whether it stands above or below them.

How the values were obtained:
hOAT [1] = molecular target: T1, hOAT (Homo sapiens, UniProt P04181); test: Fluoride ion release assay; assay type: biochemical; details: without α-KG; triplicate, mean with standard deviation
T1 construct: made in house; host or cells: E. coli BL21(DE3)
T1 sequence (P04181 26-439): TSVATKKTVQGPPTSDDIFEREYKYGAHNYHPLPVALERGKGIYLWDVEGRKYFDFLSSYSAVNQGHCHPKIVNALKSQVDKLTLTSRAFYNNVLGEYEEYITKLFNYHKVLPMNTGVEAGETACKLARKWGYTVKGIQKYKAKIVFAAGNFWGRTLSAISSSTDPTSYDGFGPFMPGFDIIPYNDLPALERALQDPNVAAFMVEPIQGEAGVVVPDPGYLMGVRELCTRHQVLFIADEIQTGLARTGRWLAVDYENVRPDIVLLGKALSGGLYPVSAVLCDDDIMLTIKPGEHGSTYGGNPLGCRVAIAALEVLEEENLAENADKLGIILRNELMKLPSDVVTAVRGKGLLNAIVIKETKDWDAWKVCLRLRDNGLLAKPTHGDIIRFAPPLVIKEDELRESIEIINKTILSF
Method: The fluoride ion release assay was conducted using previous protocols.^10 The final concentration of enzyme in the sample was determined via BCA protein assay kit (Pierce, cat: 23225). A calibration curve of voltage (V, mV) was generated from varying concentrations of NaF (F, μM). For accurate detection of fluoride ion concentration, 10 μM of fluoride ion was added to each control and sample The number of fluoride ions released per active site was calculated by the ratio of the fluoride ion release concentration and enzyme concentration.

GABA-AT [2] = molecular target: T2, GABA-AT (Sus scrofa, UniProt P80147); details: literature, cited from earlier work
hOAT [3] = molecular target: T1, hOAT; details: literature; cited from earlier work
[4] = test system: alanine aminotransferase (Ala-AT); details: up to 4 mM; cited from earlier work
hOAT [5] = molecular target: T1, hOAT; details: data extracted from Reference 9; cited from earlier work
GABA-AT [6] = molecular target: T2, GABA-AT; test: Reversible inhibition of GABA-AT (coupled assay with SSDH); assay type: biochemical, pig; parameters: was purified from pig brain following a procedure described previously; from tissue; host or cells: pig brain; details: for Ki: Ki = IC50/(1 + [S]/Km), 9-point assay
Method: (§1) All reagents for enzyme purification and assays were purchased from Sigma-Aldrich (St. Louis, MO, USA). Human OAT (0.672 mg/mL) was purified from E. coli BL21 (DE3) cells following the procedure described above, and coenzyme human recombinant pyrroline 5-carboxylate reductase (PYCRI) were expressed, grown, and purified according to a literature procedure.^4 γ-Aminobutyric acid aminotransferase (GABA-AT, 0.4 mg/mL) was purified from pig brain following a procedure described previously^5, and coenzyme succinic semialdehyde dehydrogenase (SSDH) was purified from GABase (catalog No. G7509-25UN, Sigma-Aldrich), a commercially available mixture of SSDH and GABA-AT, using a known procedure.^6 Commercially available L-aspartate aminotransferase (Asp-AT) from the porcine heart (catalog No. G2751-2KU, Sigma-Aldrich) and the desired assay coenzyme malic dehydrogenase from porcine (catalog No. M2634-5KU, Sigma-Aldrich), and L-alanine aminotransferase (Ala-AT) from the porcine heart (catalog No. G8255-200UN, Sigma-Aldrich) and the desired assay coenzyme lactate dehydrogenase from porcine (catalog No. 427211-50KU, Sigma-Aldrich) were used directly without further purification. All the enzyme assays for the inactivation, partition ratio, and dialysis experiment were recorded on a Synergy H1 hybrid multimode microplate reader (Biotek, USA) with transparent 96-well plates.
96-well plates were loaded with 80 μL of an assay mixture containing excess SSDH, 1 mM NADP^+, 11.1 mM GABA, and 10 μL of various concentrations of the tested compounds in 50 mM potassium pyrophosphate buffer (pH 8.5, 5 mM α-ketoglutarate, and 5 mM β-mercaptoethanol). […] The microplate was shaken at 25° C. for 1 min, and the remaining enzyme activity was determined by observing the change in absorbance at 340 nm at 25° C. based on the conversion of NADP^+ to NADPH. […] Subsequent Ki values were determined using equation (2) All assays were performed in duplicate.

hOAT [7] = molecular target: T1, hOAT; test: Time-dependent inactivation of hOAT; assay type: biochemical; details: for kinact/KI: inactivation efficiency; for KI (inactivator concentration for half-maximal inactivation): inhibitor concentration for half-maximal inactivation; for KI (inactivator concentration for half-maximal inactivation) / kinact: mean and standard error
Method: as §1
Time-dependent inactivation against hOAT was performed using an optimized procedure published previously.^7 10 μL of hOAT (0.025 mg/mL) was preincubated with 10 μL of various concentrations of tested compounds in 100 mM potassium pyrophosphate buffer (pH 8.0, 5 mM α-ketoglutarate, and 5 mM β-mercaptoethanol) at 25° C. in a 96-well plate. At time intervals, 80 μL of assay solution containing PYCR^1 (0.5 μg), 1 mM NADH, and 25 mM L-ornithine in the abovementioned potassium pyrophosphate buffer were added to the incubation mixture and assayed for OAT activity at 37° C. for 30 min. The change in UV absorbance at 340 nm at 37° C. based on the conversion of NADH to NAD was monitored by a microplate reader. All assays were performed in duplicate, and the remaining OAT activity at each preincubation time at each inhibitor concentration was averaged. The natural logarithm of the percentage of the remaining OAT activity was plotted against the preincubation time at each inhibitor concentration to obtain the kobs (slope) value for each concentration. The kobs value is the rate constant describing the inactivation at each inhibitor concentration. kobs is replotted against the inhibitor concentration using nonlinear regression analysis using GraphPad Prism 8.0. K1 and kinact values were estimated from equation (1)
where kinact is the maximal rate of inactivation, K1 is the inhibitor concentration required for half-maximal inactivation, and [I] is the preincubation concentration of the tested compound.

HCC mouse model = details: 0.1 and 1.0 mg/kg; PO; cited from earlier work
hOAT [8] = molecular target: T1, hOAT; details: data extracted from Reference 9; cited from earlier work; remark: listed apart in the source
[9] = test system: aspartate aminotransferase (Asp-AT); details: up to 4 mM; cited from earlier work
hOAT [10] = molecular target: T1, hOAT; test: Partition ratio experiment (titration of hOAT); assay type: biochemical; details: in the presence of α-KG
Method: FIG. 9. Titration of hOAT with SS-1-148. The loss of enzyme activity was measured as a function of the ratio of […] to enzyme concentration. Linear regression was used on the linear portion of the curves to obtain the X-intercept, which was the turnover number (partition ratio=turnover number−1).
The partition ratio was calculated using previous protocols.^8-10

T2 sequence (P80147 29-500): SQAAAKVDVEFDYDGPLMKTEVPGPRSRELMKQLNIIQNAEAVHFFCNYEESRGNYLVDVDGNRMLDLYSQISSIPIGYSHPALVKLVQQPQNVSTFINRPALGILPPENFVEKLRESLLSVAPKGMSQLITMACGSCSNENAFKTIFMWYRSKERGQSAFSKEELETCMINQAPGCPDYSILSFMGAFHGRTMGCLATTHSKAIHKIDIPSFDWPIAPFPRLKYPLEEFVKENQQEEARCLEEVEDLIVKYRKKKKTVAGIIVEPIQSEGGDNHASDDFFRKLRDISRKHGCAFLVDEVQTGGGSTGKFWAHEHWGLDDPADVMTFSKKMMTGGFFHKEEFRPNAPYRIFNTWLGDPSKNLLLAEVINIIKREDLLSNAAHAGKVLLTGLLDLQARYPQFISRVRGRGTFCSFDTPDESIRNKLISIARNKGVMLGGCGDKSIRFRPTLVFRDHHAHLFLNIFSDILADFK

Fluoride ion release (hOAT [1]): 3395± 31
SMILES: N[C@H]1C[C@@H](C(=O)O)CC1(F)F [Compound 4, (1R,4S)-4-Amino-3,3-difluorocyclopentanecarboxylic acid hydrochloric acid salt, reference compound]

SMILES: N[C@H]1C=C(C(=O)O)CCC1(F)F [WZ-2-051, (S)-3-amino-4,4-difluorocyclohex-1-enecarboxylic acid]
selectivity over GABA-AT (GABA-AT [2]; hOAT over GABA-AT): 13.3 fold
type of inhibition on GABA-AT (GABA-AT [2]): apparent irresponsible inhibition
improvement in inactivation efficiency (kinact/K1 ratio) against hOAT compared to BCF3 (hOAT [3]): 23 fold

Ki (GABA-AT [6]): 5160 µM
kinact/KI (hOAT [7]): 16.7 M⁻¹ s⁻¹
KI (inactivator concentration for half-maximal inactivation) (hOAT [7]): 90 ± 30 µM
kinact (hOAT [7]): 0.0015 s⁻¹
SMILES: N[C@H]1C[C@@H](C(=O)O)CC1=C(C(F)(F)F)C(F)(F)F [BCF3, (1S,3S)-3-Amino-4-(hexafluoropropan-2-ylidenyl)-cyclopentane-1-carboxylic Acid]
inhibition on alanine aminotransferase (Ala-AT) [4]: no inhibition
Fluoride ion release (hOAT [5]): 79^b
serum AFP levels (HCC mouse model): remarkably decreased
tumor growth (HCC mouse model): inhibited tumor growth
Partition ratio (hOAT [8]): 12^b
inhibition on aspartate aminotransferase (Asp-AT) [9]: no inhibition

inhibitory activity against GABA-AT weaker than cyclopentane-based 4 (GABA-AT [6]): about 10 times
Ki (GABA-AT [6]): 1340 µM
kinact/KI (hOAT [7]): 0.233 M⁻¹ s⁻¹
KI (inactivator concentration for half-maximal inactivation) (hOAT [7]): 2130 ± 900 µM
kinact (hOAT [7]): 0.0005 s⁻¹
Partition ratio (hOAT [10]): 817
Fluoride ion release (hOAT [1]): 754 ± 57
SMILES: N[C@H]1CC(C(=O)O)=CC1(F)F [Compound 5, (S)-4-Amino-3,3-difluorocyclopent-1-enecarboxylic acid]
